Test results: PubChem BioAssay AID179 (DTP/NCI, 2004)
Several values for one entry are separate records, joined by “and”; a condition that tells them apart may be missing. Equal entries are not always repeated. Activity calls are given as the source filed them.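 How the source made its calls: active means compounds giving half or more protection of infected cells from virus-caused growth loss, again on retest; inactive means the rest.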

Tested on: CEM cells HIV-1 protection, formazan growth assay
Experiment: NCI AIDS Antiviral Assay
Settings: for IC50: measured here: growth of uninfected CEM cells
Procedure, shortened: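 Protection of CEM cells against HIV-1 measured as cell growth via soluble formazan read-out, with five concentrations tested on both infected and uninfected cells; failure to protect may reflect toxicity.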

Compound | EC50 [µM] | IC50 | outcome
COc1cc2cc[n+]3c(C)c4cc(OC)c(OC)cc4c([O-])c3c2cc1OC | > 200 | 123 µM | –
O=C1CC(c2ccccc2)Oc2cc(O)cc(O)c21 (configuration not stated) | > 200 | 34.7 µM and > 200 µM and 55 µM | –
CC1=CC(C(=O)O)P(C)(=O)C1 (configuration not stated) | – | – | inactive
O=C1C(C2CCCCC2)CCCC1(CO)CO (configuration not stated) | – | – | inactive
Cc1c2cccc-2c(OCCO)cc2c1[nH]c1ccccc12 | > 200 | 2.88 µM | –
[N-]=[N+]=NC12CC3CC4C5CC(CC41)CC2[C@H]5C3 | > 81.3 | > 81.3 µM | –
CNc1ccc(C=C2c3ccccc3-c3ccccc32)cc1 | > 13.2 | 4.79 µM | –
CCc1c(Cc2ccccc2)n(COCCCO[Si](C)(C)C(C)(C)C)c(=O)[nH]c1=O | > 200 | 10 µM | –
c1scc2c1COCCOCCOCCOCc1cscc1COCCOCCOCCOC2 | > 347 | > 347 µM | –
O=C(/C=C/c1ccccc1)c1ccc(Sc2ccccc2)cc1 | > 2 | 0.107 µM | –
COc1ccc(C2=NC(CO)[C@H](c3ccccc3)O2)cc1OC (some centres not stated) | > 219 | > 219 µM | –
COc1cc(/C=C2/C(=O)N=C(NC(C)=O)N2C)ccc1OC(C)=O | > 200 | > 200 µM | –
O=C1[C@H]2ON(c3ccccc3)C(c3ccccc3Cl)[C@H]2C(=O)N1c1ccc(Cc2ccc(N3C(=O)[C@@H]4ON(c5ccccc5)C(c5ccccc5Cl)[C@@H]4C3=O)cc2)cc1 (some centres not stated) | > 8.71 | > 8.71 µM | –
Cc1cc(N)ccc1C=O | > 200 | > 200 µM | –
c1ccc2c(c1)nn1c3ccc4nonc4c3[n-][n+]21 | – | – | inactive
CC1=CC(O)C(Br)C(C)(C)C12CCC(C)(Cl)C(Br)C2 (configuration not stated) | > 200 | 25.1 µM | –
O=c1c2ccccc2[se]n1-c1ccccc1 | 1.62 | 17.8 µM | –
O=C(CC(C(=O)c1cccs1)c1ccsc1)c1ccsc1 (configuration not stated) | > 200 | 11.5 µM | –
C=CCN1C(N)=C(C#N)C(C#N)(C#N)C1CCC (configuration not stated) | > 200 | 151 µM | –
CSc1nc(NC2OC(COC(C)=O)C(OC(C)=O)C(OC(C)=O)C2OC(C)=O)c2c(n1)OCC2=O (configuration not stated) | > 67.6 | > 67.6 µM | –
CN/C=C(\C(=O)c1ccc(OC)c(OC)c1)c1ccc(OC)cc1 | > 398 | 6.92 µM | –
Cc1oc2c(C)c3oc(=O)cc(C)c3cc2c1CN | > 50.1 | 7.08 µM | –

Compound | EC50 [µM] | IC50 | outcome
CN1CCCOC(c2ccc(Cl)cc2)O1 (configuration not stated) | > 200 | > 200 µM | –
N#CC(C(=O)CCC(=O)Nc1cccc(Cl)c1)c1ccccc1 (configuration not stated) | > 759 | > 759 µM | –
CCOC(=O)Nc1ccc2c(c1)c(CCCCCCc1nc3ccccc3c3ccc(NC(=O)OCC)cc13)nc1ccccc12 | > 100 | 21.4 µM | –
O=S(=O)(O)c1cc(N=Nc2c(O)ccc3ccccc23)ccc1/C=C/c1ccc(N=Nc2c(O)ccc3ccccc23)cc1S(=O)(=O)O | > 50.1 | > 50.1 µM | –
Cc1cc2c(cc1C(=O)CCC(=O)O)CC1(C2)Cc2cc(C)c(C(=O)CCC(=O)O)cc2C1 | > 200 | > 200 µM | –
O=C(/C=C(\Cl)c1c[nH]c(=O)[nH]c1=O)c1ccccc1 | – | – | inactive
CC(=O)OCC1OC(n2cc(C)c(-n3cncn3)nc2=O)CC1N=[N+]=[N-] (configuration not stated) | > 200 | 11.5 µM | –
C[C@@H](c1ccccc1)n1c(N)c(C#N)c2ccc([N+](=O)[O-])cc2c1=O | > 200 | 12.3 µM | –
COc1ccc(/C=C2/C(=O)NC3SC=C(c4cccc([N+](=O)[O-])c4)N23)cc1 (configuration not stated) | > 200 | 83.2 µM | –
CN(C)c1ccc(/C=C/c2cc[n+]3cc(-c4ccccc4)sc3n2)cc1 | > 1.51 | 0.324 µM | –
COc1ccc(NC(=O)/C(Cc2nc3ccccc3[nH]c2=O)=N\O)c(OC)c1 | – | – | inactive
COc1ccc2c(c1OC)CN(C)CCc1cc3c(cc1C(=O)C2)OCO3 | > 355 | 288 µM | –
CC1SCc2nc3ccccc3n21 (configuration not stated) | > 200 | > 200 µM | –
O=C(CCc1ccc(O)c(O)c1)NCCc1ccccc1 | > 200 | 21.9 µM | –
O=C1Cc2c([nH]c3ccccc23)C2(CC3CCCCN13)OCCO2 (configuration not stated) | > 200 | 182 µM | –
CCCCCCCCCC=C(c1cc(Cl)c(OC)c(C(=O)OC)c1)c1cc(Cl)c(OC)c(C(=O)OC)c1 | > 23.4 | > 23.4 µM | –
O=C1CN(CCN2CCCCC2)CC(=O)N2Cc3ccccc3CN12 | > 200 | > 200 µM | –
CCOc1ccc2nc(NC(=O)C3C4CCC(O4)C3C(=O)O)sc2c1 (configuration not stated) | > 200 | 135 µM | –
C=C1CC2C(=O)N(c3ccccc3)C(=O)C2CC1n1[nH]c(=O)n(Cc2ccccc2)c1=O (configuration not stated) | > 219 | > 219 µM | –
O=C(C(/C=N\C(=S)Nc1ccccc1Cl)=C(/O)c1ccccc1)c1ccccc1 | > 200 | 12 µM | –
Cc1ccc(CN=C(N)CSS(=O)(=O)O)cc1C | > 200 | > 100 µM | –
N.N.N.N.N.O=C([O-])c1nn[n-]n1.[Cl-].[Co+3] | > 16.2 | > 16.2 µM | –

Compound | EC50 [µM] | IC50 | outcome
COC1O[C@@H]2CCN3C(=O)[C@@H](OC(=O)c4ccc([N+](=O)[O-])cc4)[C@H]1C23 (some centres not stated) | > 200 | > 200 µM | –
Cc1cn(C2CCC(/C=N\O)O2)c(=O)[nH]c1=O (configuration not stated) | > 200 | > 200 µM | –
CNc1ncnc2c1cnn2CCCCO | > 200 | > 200 µM | –
COC12OCCN(CCO)C1=CC(=O)C1(C)N=NC(C)C12 (configuration not stated) | – | – | inactive
N=C(N)c1csc([C@@H]2O[C@H](CO)[C@@H](O)[C@H]2O)n1 | – | – | inactive
CC(C)[C@H]1CO[C@@H]2O[C@H](C)CC(=O)N21 | > 1260 | > 1260 µM | –
Cc1nnc2n(c1=O)CCCN2C | > 200 | > 200 µM | –
COC(=O)C(=O)C(CC(=O)Nc1cc(Cl)ccc1Cl)C(=O)OC (configuration not stated) | > 7.59 | > 7.59 µM | –
O=C1/C(=C\c2cccc(Oc3ccccc3)c2)S(=O)(=O)C(c2ccccc2)N1c1ccc(Cl)cc1 (configuration not stated) | > 20 | – | –
[O-][n+]1onc(-c2ccccc2)c1-c1ccccc1 | > 151 | > 151 µM | –
Cc1nnc2n1-c1ccccc1C(=S)N1CSCC21 (configuration not stated) | > 200 | > 200 µM | –
Cc1ccccc1Nc1nc(-c2ccccc2)nc(N)c1N=O | > 200 | 21.9 µM | –
O=C(C[C@H](NC(=O)OCc1ccccc1)C(=O)NC1Cc2ccccc2OC1=O)OCc1ccccc1 (some centres not stated) | > 200 | 93.3 µM | –
Cc1ccc(-c2cc[n+]3c(n2)oc2ccccc23)cc1 | > 200 | 3.63 µM | –
CN(C)CCNC(=O)c1cccc(CO)c1[N+](=O)[O-] | > 200 | > 200 µM | –
CCOC(=O)C(C)c1c(C(=O)c2ccc(C)nc2)c2ccccc2n1C (configuration not stated) | – | – | inactive
CCN1CCC(O)(c2ccc(Cl)c(Cl)c2)C(C(=O)c2ccc(Cl)c(Cl)c2)C1 (configuration not stated) | > 67.6 | 38.9 µM | –
CCN(CC)CCC(=O)c1ccc(Oc2ccccc2)cc1 | > 200 | 17.4 µM | –
C[C@@H]1CC(O)C2(O)C13CC(OC(=O)[C@@H]3O)C1(O)C(=O)OCC12C (some centres not stated) | > 759 | > 759 µM | –
CCOC(=O)c1ccc(/C(C#N)=C/c2ccc(Cl)cc2)cc1 | > 200 | > 200 µM | –
COC(=O)c1ccccc1N1C(=O)Cc2ccccc2C1=O | – | – | inactive
CCCCC(C(=O)CCC(=O)Nc1ccc(Cl)c(Cl)c1)C(=O)C(C)C (configuration not stated) | > 324 | 275 µM | –
